{"source": "patent US20140242093A1", "about": "“METHODS AND COMPOSITIONS FOR MODULATING THE INNATE IMMUNE RESPONSE AND/OR MYOGENESIS IN A MAMMALIAN SUBJECT” (FRED HUTCHINSON CANCER RESEARCH CENTER, priority 2011, published 2014)", "tested_on": "control human primary myoblasts", "experiment": "Expression microarray of primary myoblasts transduced with lentivirus carrying DUX4-fl, DUX4-s or GFP", "protocol": "Primary human myoblasts were collected and cultured as previously described (Snider et al., 2010). Primary myoblasts were maintained at or below 70% confluency for proliferation. For differentiation, cells were allowed to reach 95-100% confluency in growth medium. Once confluency was reached, the cells were changed to differentiation medium (F10 media supplemented with 1% horse serum, 10 μg/mL insulin, and 10 μg/mL transferrin, penicillin/streptomycin) and maintained for 4 days. Human RD cells were grown in DMEM in 10% bovine calf serum (Hyclone) and penicillin/streptomycin. The primary myoblasts were transduced with lentivirus carrying DUX-fl, DUX4- or GFP (MOI=15).\nExpression microarrays were performed on the transduced cells at 24 hours after transduction as follows. […] Samples were analyzed by Illumina Human Whole Genome microarrays. Probe intensities were corrected, normalized, and summarized by the Lumi package of Bioconductor (Du et al., 2008). Differentially expressed genes were identified by the LIMMA package of Bioconductor (Wettenhall and Smyth, 2004). Gene set enrichment analysis (GSEA) was performed using the Bioconductor GOstats package (Falcon and Gentleman, 2007).", "data": [{"substance": "DUX4-fl: full-length DUX4 protein (SEQ ID NO:110), expressed from lentiviral or pCS2 vectors or in vitro translated", "values": [{"measurement": "ZBTB4 expression fc", "setting": "cultured human skeletal muscle", "value": "−1.417"}, {"measurement": "ZC3H12A expression fc", "setting": "cultured human skeletal muscle", "value": "−1.546"}, {"measurement": "ZFHX3 expression fc", "setting": "cultured human skeletal muscle", "value": "−1.762"}, {"measurement": "ZFP36L2 expression fc", "setting": "cultured human skeletal muscle", "value": "−1.545"}, {"measurement": "ZFP90 expression fc", "setting": "cultured human skeletal muscle", "value": "−1.609"}, {"measurement": "ZNF337 expression fc", "setting": "cultured human skeletal muscle", "value": "−1.693"}, {"measurement": "ZNF395 expression fc", "setting": "cultured human skeletal muscle", "value": "−1.392"}, {"measurement": "Full.fc (expression fold change for DUX4-fl targets)", "setting": "gene AVPI1", "value": 2}, {"measurement": "Full.fc (expression fold change for DUX4-fl targets)", "setting": "gene BZW2", "value": 2.7}, {"measurement": "Full.fc (expression fold change for DUX4-fl targets)", "setting": "gene C1orf63", "value": 2.2}, {"measurement": "Full.fc (expression fold change for DUX4-fl targets)", "setting": "gene C6orf191", "value": 2.1}, {"measurement": "Full.fc (expression fold change for DUX4-fl targets)", "setting": "gene C14orf102", "value": 2.5}, {"measurement": "Full.fc (expression fold change for DUX4-fl targets)", "setting": "gene C14orf138", "value": 1.7}, {"measurement": "Full.fc (expression fold change for DUX4-fl targets)", "setting": "gene C21orf91", "value": 1.8}, {"measurement": "Full.fc (expression fold change for DUX4-fl targets)", "setting": "gene CBARA1", "value": 2.1}, {"measurement": "Full.fc (expression fold change for DUX4-fl targets)", "setting": "gene CCNA1", "value": 7.5}, {"measurement": "Full.fc (expression fold change for DUX4-fl targets)", "setting": "gene CCNJ", "value": 2.7}, {"measurement": "Full.fc (expression fold change for DUX4-fl targets)", "setting": "gene CLDN14", "value": 3.1}, {"measurement": "Full.fc (expression fold change for DUX4-fl targets)", "setting": "gene CLK1", "value": 1.8}, {"measurement": "Full.fc (expression fold change for DUX4-fl targets)", "setting": "gene CSE1L", "value": 2.9}, {"measurement": "Full.fc (expression fold change for DUX4-fl targets)", "setting": "gene CTNNAL1", "value": 1.6}, {"measurement": "Full.fc (expression fold change for DUX4-fl targets)", "setting": "gene CTR9", "value": 2.4}, {"measurement": "Full.fc (expression fold change for DUX4-fl targets)", "setting": "gene DBR1", "value": 3.4}, {"measurement": "Full.fc (expression fold change for DUX4-fl targets)", "setting": "gene DDX47", "value": 1.7}, {"measurement": "Full.fc (expression fold change for DUX4-fl targets)", "setting": "gene DEFB103A", "value": 6.4}, {"measurement": "Full.fc (expression fold change for DUX4-fl targets)", "setting": "gene DENND2C", "value": 2.6}, {"measurement": "Full.fc (expression fold change for DUX4-fl targets)", "setting": "gene EGLN1", "value": 1.6}, {"measurement": "Full.fc (expression fold change for DUX4-fl targets)", "setting": "gene EXOSC10", "value": 1.9}, {"measurement": "Full.fc (expression fold change for DUX4-fl targets)", "setting": "gene FAM90A1", "value": 3.6}, {"measurement": "Full.fc (expression fold change for DUX4-fl targets)", "setting": "gene FBXO33", "value": 3.2}, {"measurement": "Full.fc (expression fold change for DUX4-fl targets)", "setting": "gene FRG2B", "value": 2}, {"measurement": "Full.fc (expression fold change for DUX4-fl targets)", "setting": "gene GPBAR1", "value": 1.9}, {"measurement": "Full.fc (expression fold change for DUX4-fl targets)", "setting": "gene GTF2F1", "value": 3.2}, {"measurement": "Full.fc (expression fold change for DUX4-fl targets)", "setting": "gene HOXB2", "value": 2.2}, {"measurement": "Full.fc (expression fold change for DUX4-fl targets)", "setting": "gene JUP", "value": 3.2}, {"measurement": "Full.fc (expression fold change for DUX4-fl targets)", "setting": "gene KDM5B", "value": 1.8}, {"measurement": "Full.fc (expression fold change for DUX4-fl targets)", "setting": "gene KIF21A", "value": 1.8}, {"measurement": "Full.fc (expression fold change for DUX4-fl targets)", "setting": "gene MAPKAP1", "value": 1.6}, {"measurement": "Full.fc (expression fold change for DUX4-fl targets)", "setting": "gene MAST4", "value": 1.7}, {"measurement": "Full.fc (expression fold change for DUX4-fl targets)", "setting": "gene MED13", "value": 1.8}, {"measurement": "Full.fc (expression fold change for DUX4-fl targets)", "setting": "gene NANS", "value": 1.9}, {"measurement": "Full.fc (expression fold change for DUX4-fl targets)", "setting": "gene NFYA", "value": 2.3}, {"measurement": "Full.fc (expression fold change for DUX4-fl targets)", "setting": "gene PABPN1", "value": 2.6}, {"measurement": "Full.fc (expression fold change for DUX4-fl targets)", "setting": "gene PANX2", "value": 3.8}, {"measurement": "Full.fc (expression fold change for DUX4-fl targets)", "setting": "gene PELI1", "value": 2.9}, {"measurement": "Full.fc (expression fold change for DUX4-fl targets)", "setting": "gene PNP", "value": 7}, {"measurement": "Full.fc (expression fold change for DUX4-fl targets)", "setting": "gene PPP2R2B", "value": 4.1}, {"measurement": "Full.fc (expression fold change for DUX4-fl targets)", "setting": "gene PRAMEF12", "value": 7.8}, {"measurement": "Full.fc (expression fold change for DUX4-fl targets)", "setting": "gene PRPF18", "value": 1.7}, {"measurement": "Full.fc (expression fold change for DUX4-fl targets)", "setting": "gene PRR4", "value": 3.6}, {"measurement": "Full.fc (expression fold change for DUX4-fl targets)", "setting": "gene PTP4A1", "value": 1.7}, {"measurement": "Full.fc (expression fold change for DUX4-fl targets)", "setting": "gene PVRL3", "value": 2.2}, {"measurement": "Full.fc (expression fold change for DUX4-fl targets)", "setting": "gene RBBP6", "value": 2}, {"measurement": "Full.fc (expression fold change for DUX4-fl targets)", "setting": "gene RFPL1", "value": 8.4}, {"measurement": "Full.fc (expression fold change for DUX4-fl targets)", "setting": "gene RFPL2", "value": 7.3}, {"measurement": "Full.fc (expression fold change for DUX4-fl targets)", "setting": "gene RFPL4B", "value": 8.3}, {"measurement": "Full.fc (expression fold change for DUX4-fl targets)", "setting": "gene RTN4", "value": 1.6}, {"measurement": "Full.fc (expression fold change for DUX4-fl targets)", "setting": "gene SAMD8", "value": 1.6}, {"measurement": "Full.fc (expression fold change for DUX4-fl targets)", "setting": "gene SEC61A2", "value": 1.8}, {"measurement": "Full.fc (expression fold change for DUX4-fl targets)", "setting": "gene SFRS2B", "value": 4.2}, {"measurement": "Full.fc (expression fold change for DUX4-fl targets)", "setting": "gene SH3GL2", "value": 1.6}, {"measurement": "Full.fc (expression fold change for DUX4-fl targets)", "setting": "gene SIAH1", "value": 3.7}, {"measurement": "Full.fc (expression fold change for DUX4-fl targets)", "setting": "gene SNAI1", "value": 1.9}, {"measurement": "Full.fc (expression fold change for DUX4-fl targets)", "setting": "gene SON", "value": 2.1}, {"measurement": "Full.fc (expression fold change for DUX4-fl targets)", "setting": "gene SPRYD5", "value": 1.8}, {"measurement": "Full.fc (expression fold change for DUX4-fl targets)", "setting": "gene SPTY2D1", "value": 3.3}, {"measurement": "Full.fc (expression fold change for DUX4-fl targets)", "setting": "gene SRRT", "value": 2.6}, {"measurement": "Full.fc (expression fold change for DUX4-fl targets)", "setting": "gene SYNJ1", "value": 2.4}, {"measurement": "Full.fc (expression fold change for DUX4-fl targets)", "setting": "gene TAF4B", "value": 1.9}, {"measurement": "Full.fc (expression fold change for DUX4-fl targets)", "setting": "gene TFIP11", "value": 3.2}, {"measurement": "Full.fc (expression fold change for DUX4-fl targets)", "setting": "gene TRIM43", "value": 8.1}, {"measurement": "Full.fc (expression fold change for DUX4-fl targets)", "setting": "gene TRIM48", "value": 7.9}, {"measurement": "Full.fc (expression fold change for DUX4-fl targets)", "setting": "gene TRIM49L1", "value": 6.9}, {"measurement": "Full.fc (expression fold change for DUX4-fl targets)", "setting": "gene TRIM49L2", "value": 6.9}, {"measurement": "Full.fc (expression fold change for DUX4-fl targets)", "setting": "gene USP29", "value": 2.6}, {"measurement": "Full.fc (expression fold change for DUX4-fl targets)", "setting": "gene ZNF217", "value": 4.1}, {"measurement": "Full.fc (expression fold change for DUX4-fl targets)", "setting": "gene ZNF296", "value": 5.5}, {"measurement": "Full.fc (expression fold change for DUX4-fl targets)", "setting": "gene ZNF705A", "value": 3.9}, {"measurement": "Full.fc (expression fold change for DUX4-fl targets)", "setting": "gene ZSCAN4", "value": 8.3}, {"measurement": "Full.fc (expression fold change for DUX4-fl targets)", "setting": "gene ZSCAN5B", "value": 3.8}, {"measurement": "Full.fc (expression fold change for DUX4-fl targets)", "setting": "gene hCG_1651160", "value": 8.3}]}]}
